Test results as given in ChEMBL document CHEMBL1201862, “PubChem BioAssay data set” (2004).
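96-well plates; 48 h exposure; 5 concentrations. Endpoints by linear interpolation between flanking doses. Not reached: highest tested concentration assigned. The concentration for 50% growth inhibition is given as GI50.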 Calls of active or inactive are those of the source. No stated cut-off is given here; in the data, active = GI50 up to about 1.1 µM and inactive = higher.

Tests used:
Experiment in all cases: NCI anticancer screen, dose series, 48 h
MDA-N = tested on: MDA-N
NCI-H522 = tested on: NCI-H522
SF-539 = tested on: SF-539
SF-268 = tested on: SF-268
LOX IMVI = tested on: LOX IMVI
UACC-257 = tested on: UACC-257
SK-MEL-2 = tested on: SK-MEL-2
EKVX = tested on: EKVX
HOP-92 = tested on: HOP-92
HCC 2998 = tested on: HCC 2998
SR = tested on: SR
HL-60 = tested on: HL-60
A498 = tested on: A498
A549 = tested on: A549
Malme-3M = tested on: Malme-3M
SN12C = tested on: SN12C
OVCAR-3 = tested on: OVCAR-3
CCRF-CEM = tested on: CCRF-CEM
TK-10 = tested on: TK-10
OVCAR-8 = tested on: OVCAR-8

SMILES | GI50 (MDA-N) | GI50 (NCI-H522) | GI50 (SF-539) | GI50 (SF-268) | GI50 (LOX IMVI) | GI50 (UACC-257) | GI50 (SK-MEL-2) | GI50 (EKVX) | GI50 (HOP-92) | GI50 (HCC 2998) | GI50 (SR) | GI50 (HL-60) | GI50 (A498) | GI50 (A549) | GI50 (Malme-3M) | GI50 (SN12C) | GI50 (OVCAR-3) | GI50 (CCRF-CEM) | GI50 (TK-10) | GI50 (OVCAR-8)
COc1ccc(Cl)cc1NC(=O)c1cccc([N+](=O)[O-])c1O | 19.8 µM (inactive) | 6.49 µM (inactive) | 16.1 µM (inactive) | 17.9 µM (inactive) | 13.7 µM (inactive) | 15.2 µM (inactive) | 4.17 µM (inactive) | 9.82 µM (inactive) | 3 µM (inactive) | 14 µM (inactive) | 17.5 µM (inactive) | 19.1 µM (inactive) | 5.7 µM (inactive) | 11.2 µM (inactive) | 4.97 µM (inactive) | 12.6 µM (inactive) | 5.19 µM (inactive) | 16 µM (inactive) | 32.9 µM (inactive) | 17.8 µM (inactive)
OC(O)(C(F)(F)F)C(F)(F)F | > 100 µM (inactive) | > 100 µM (inactive) | > 100 µM (inactive) | > 100 µM (inactive) | > 100 µM (inactive) | > 100 µM (inactive) | > 100 µM (inactive) | > 100 µM (inactive) | > 100 µM (inactive) | > 100 µM (inactive) | > 100 µM (inactive) | > 100 µM (inactive) | > 100 µM (inactive) | > 100 µM (inactive) | > 100 µM (inactive) | > 100 µM (inactive) | > 100 µM (inactive) | > 100 µM (inactive) | > 100 µM (inactive) | > 100 µM (inactive)
COc1ccc(/C=N/n2c(-c3ccccc3)n[nH]c2=O)c(OC)c1 | > 100 µM (inactive) | > 52.2 µM (inactive) | 28.4 µM (inactive) | 22.3 µM (inactive) | 47.4 µM (inactive) | > 100 µM (inactive) | 48.2 µM (inactive) | 38.5 µM (inactive) | 36.5 µM (inactive) | > 100 µM (inactive) | > 100 µM (inactive) | > 100 µM (inactive) | 31.6 µM (inactive) | 36.7 µM (inactive) | > 100 µM (inactive) | 44 µM (inactive) | 79.6 µM (inactive) | > 100 µM (inactive) | 27 µM (inactive) | 29.9 µM (inactive)
COc1cccc2c1C(=O)c1c(O)c3c(c(O)c1C2=O)C[C@@](O)(C(=O)CO)C[C@@H]3OC1CC2C(OCN3CN2COC2C(C)OC(O[C@H]4C[C@](O)(C(=O)CO)Cc5c(O)c6c(c(O)c54)C(=O)c4c(OC)cccc4C6=O)CC23)C(C)O1 (some centres undefined) | 0.0923 µM (active) | 0.0218 µM (active) | 0.0377 µM (active) | 0.0319 µM (active) | 0.0134 µM (active) | 0.05 µM (active) | 0.0362 µM (active) | 0.203 µM (active) | 0.0308 µM (active) | 0.0274 µM (active) | 0.00119 µM (active) | 0.0258 µM (active) | 0.0559 µM (active) | 0.0269 µM (active) | 0.0444 µM (active) | 0.0231 µM (active) | 0.112 µM (active) | 0.00916 µM (active) | 0.0412 µM (active) | 0.0376 µM (active)
O=C(Cc1ccccc1)N/N=C(/CCN1CCCC1)CC(c1ccccc1)c1c(O)c2ccccc2oc1=O (centres undefined) | > 100 µM (inactive) | 59 µM (inactive) | > 100 µM (inactive) | > 100 µM (inactive) | 17.3 µM (inactive) | 37.2 µM (inactive) | > 100 µM (inactive) | > 100 µM (inactive) | 31.6 µM (inactive) | 95.1 µM (inactive) | 21.4 µM (inactive) | 39.8 µM (inactive) | 28 µM (inactive) | > 100 µM (inactive) | 57.4 µM (inactive) | – | > 100 µM (inactive) | 48.9 µM (inactive) | > 100 µM (inactive) | > 100 µM (inactive)
C[C@]12CC[C@@H]3c4ccc(OC(=O)c5ccccc5)cc4CC[C@H]3[C@@H]1CCC2OC(=O)c1cccc2c(=O)c3ccccc3[nH]c12 (some centres undefined) | 11.1 µM (inactive) | 23.3 µM (inactive) | 16.6 µM (inactive) | 22.8 µM (inactive) | 16.3 µM (inactive) | 20.3 µM (inactive) | 14.1 µM (inactive) | 9.38 µM (inactive) | 18 µM (inactive) | 15.2 µM (inactive) | 25.8 µM (inactive) | 18.8 µM (inactive) | 26 µM (inactive) | 14.2 µM (inactive) | 24.5 µM (inactive) | 14.4 µM (inactive) | 26.1 µM (inactive) | 24.7 µM (inactive) | 19.1 µM (inactive) | 18.3 µM (inactive)
O=c1c2cccnc2[nH]c2ccc3scnc3c12 | > 10 µM (inactive) | > 10 µM (inactive) | 6.95 µM (inactive) | > 10 µM (inactive) | 3.36 µM (inactive) | > 10 µM (inactive) | > 10 µM (inactive) | > 10 µM (inactive) | 8.17 µM (inactive) | > 10 µM (inactive) | 4.32 µM (inactive) | 4.86 µM (inactive) | 7.62 µM (inactive) | 3.96 µM (inactive) | > 10 µM (inactive) | 6.24 µM (inactive) | 4.28 µM (inactive) | 5.27 µM (inactive) | 4.86 µM (inactive) | > 10 µM (inactive)
CC(C)C1=CC23CCC4C(C)(C(=O)O)CCCC4(C)C2CC1C1C(=O)N(c2ccccc2N2C(=O)C4C5CC6C7(C)CCCC(C)(C(=O)O)C7CCC6(C=C5C(C)C)C4C2=O)C(=O)C13 (centres undefined) | 5 µM (inactive) | 8.73 µM (inactive) | 3.1 µM (inactive) | 3.09 µM (inactive) | – | – | 12.2 µM (inactive) | 3.64 µM (inactive) | 17.9 µM (inactive) | 4.01 µM (inactive) | 3.89 µM (inactive) | 6.38 µM (inactive) | 2.93 µM (inactive) | 14 µM (inactive) | 13.1 µM (inactive) | 9.06 µM (inactive) | 10.9 µM (inactive) | 4.39 µM (inactive) | 13.1 µM (inactive) | 4.52 µM (inactive)
c1ccc2c(c1)CC1COc3ccccc3C1O2 (centres undefined) | 38 µM (inactive) | 57.4 µM (inactive) | > 100 µM (inactive) | > 100 µM (inactive) | 58.7 µM (inactive) | 38.8 µM (inactive) | 44.6 µM (inactive) | 48.3 µM (inactive) | 47 µM (inactive) | 42.3 µM (inactive) | 88.1 µM (inactive) | > 100 µM (inactive) | > 100 µM (inactive) | 50.1 µM (inactive) | > 100 µM (inactive) | 67.5 µM (inactive) | 67.8 µM (inactive) | 73.6 µM (inactive) | 95.5 µM (inactive) | > 100 µM (inactive)
CN(C)CC1CCC/C(=C\c2ccc(Cl)c(Cl)c2)C1=O (centres undefined) | 3.42 µM (inactive) | 2.13 µM (inactive) | 5.2 µM (inactive) | 4.04 µM (inactive) | – | 7.71 µM (inactive) | 6.52 µM (inactive) | 10.8 µM (inactive) | 4.38 µM (inactive) | 10.7 µM (inactive) | 1.08 µM (active) | 1.97 µM (inactive) | 13.9 µM (inactive) | 15.1 µM (inactive) | 4.42 µM (inactive) | 3.42 µM (inactive) | 4.31 µM (inactive) | 0.843 µM (active) | 3.31 µM (inactive) | 3.18 µM (inactive)
N[C@H](C(=O)O)[C@@H]1CC(Br)=NO1 | 8.41 µM (inactive) | > 32 µM (inactive) | 5.21 µM (inactive) | 11.6 µM (inactive) | > 100 µM (inactive) | 54.2 µM (inactive) | > 91.8 µM (inactive) | 10.9 µM (inactive) | > 29.4 µM (inactive) | 22.7 µM (inactive) | 3.66 µM (inactive) | > 48.4 µM (inactive) | 18.1 µM (inactive) | 3.66 µM (inactive) | > 25.1 µM (inactive) | 38.3 µM (inactive) | 16.5 µM (inactive) | 14.1 µM (inactive) | 16 µM (inactive) | > 25 µM (inactive)
COc1nc2c(c(=O)n1C)NC(C(O)C(O)CO)C=N2 (centres undefined) | > 10 µM (inactive) | > 10 µM (inactive) | > 10 µM (inactive) | > 10 µM (inactive) | > 10 µM (inactive) | > 10 µM (inactive) | > 10 µM (inactive) | > 10 µM (inactive) | > 10 µM (inactive) | > 10 µM (inactive) | > 10 µM (inactive) | > 10 µM (inactive) | > 10 µM (inactive) | > 10 µM (inactive) | > 10 µM (inactive) | > 10 µM (inactive) | > 10 µM (inactive) | > 10 µM (inactive) | > 10 µM (inactive) | > 10 µM (inactive)
O=C1C2CCCCC2C(=O)N1n1c(Cc2ccccc2)n[nH]c1=O (centres undefined) | > 100 µM (inactive) | > 100 µM (inactive) | > 100 µM (inactive) | > 100 µM (inactive) | > 100 µM (inactive) | > 100 µM (inactive) | > 100 µM (inactive) | > 100 µM (inactive) | > 100 µM (inactive) | > 100 µM (inactive) | > 100 µM (inactive) | – | > 100 µM (inactive) | > 100 µM (inactive) | > 100 µM (inactive) | > 100 µM (inactive) | > 100 µM (inactive) | > 100 µM (inactive) | > 100 µM (inactive) | > 100 µM (inactive)
CC(C)(C)OC(=O)C1CC[C@@H](CC(=O)Oc2ccc([N+](=O)[O-])cc2)N1 (some centres undefined) | > 100 µM (inactive) | > 100 µM (inactive) | > 100 µM (inactive) | – | > 100 µM (inactive) | > 100 µM (inactive) | > 100 µM (inactive) | > 100 µM (inactive) | > 100 µM (inactive) | > 100 µM (inactive) | 59 µM (inactive) | > 100 µM (inactive) | > 100 µM (inactive) | > 100 µM (inactive) | > 100 µM (inactive) | > 100 µM (inactive) | > 100 µM (inactive) | > 100 µM (inactive) | > 100 µM (inactive) | > 100 µM (inactive)
